Source: paper PMC6411103, “TAK-071, a muscarinic M1 receptor positive allosteric modulator, attenuates scopolamine-induced quantitative electroencephalogram power spectral changes in cynomolgus monkeys” (PLoS ONE, 2019)
Counter-ions that a name gives are not always drawn. Like-named read-outs stand apart in the source and are kept apart here.

Legend:
[1] = parameters: method as in PMID 26116126; settings: direct radiolabeling; cited from earlier work
[2] = parameters: method as in PMID 29563325; settings: cited from earlier work
cynomolgus monkeys [3] = assay: qEEG power spectra after treatment with drug alone (radio-telemetry EEG); format: in vivo, cynomolgus monkeys (Macaca fascicularis)
Description: (§1) Implant surgery was carried out at Hamri Company Limited (Ibaraki, Japan). Briefly, under isoflurane anesthesia (1–5%, Pfizer Japan Inc., Tokyo, Japan), male cynomolgus monkeys (3–5 years old, Hamri Co., Ltd., Ibaraki, Japan) were surgically implanted with radio-telemetry transmitters (TL10M3-D70-EEE, Data Sciences International Inc., St. Paul, MN). EEG leads were stereotaxically positioned in the parietal area and secured to the cranium with stainless-steel screws in contact with the dura. […] Bilateral electromyography (EMG) leads were implanted in the back cervical muscles. After surgery, each monkey was administered penicillin (100,000 units/animal, i.m., Meiji Seika Pharma Co., Ltd., Tokyo, Japan), buprenorphine (0.02 mg/kg, i.m., Otsuka Pharmaceutical Co., Ltd., Tokyo, Japan), and prednisolone (1 mg/kg, subcutaneously [s.c.], Kyoritsu Seiyaku Co., Ltd., Tokyo, Japan) daily for one week.
(§2) TAK-071, 4-fluoro-2-[(3S,4S)-4-hydroxytetrahydro-2H-pyran-3-yl]-5-methyl-6-[4-(1H-pyrazol-1-yl)benzyl]-2,3-dihydro-1H-isoindol-1-one, was synthesized by Takeda Pharmaceutical Company Limited (Kanagawa, Japan). Donepezil hydrochloride and xanomeline oxalate were purchased from Mega Fine Pharma (P) Limited (Mumbai, India) and Metina AB (Lund, Sweden), respectively. […] TAK-071 and donepezil hydrochloride were suspended in 0.5% (w/v) methylcellulose in distilled water and the volume of administration was 2 mL/kg orally (p.o.). […] The doses of compounds correspond to their salt forms. The administration was scheduled according to a 3×3 cross-over design.
(§3) After at least a 1-month recovery period in their home cages, the monkeys were habituated to the recording chamber (acrylic cage, 60 × 55 × 75 [cm^3 width × depth × height]) located in a soundproof, electrically shielded room. Cortical EEG, EMG, and EOG signals were recorded at a sampling rate of 500 Hz using Dataquest ART software (Data Sciences International, New Brighton, MN). The behavioral and postural changes of the animals were observed using a video camera continuously throughout the experiment. The recordings were performed between 9 a.m. and 4 p.m..
(§4) EEG data were analyzed off-line using SleepSign (KISSEI COMTEC Co., Ltd., Nagano, Japan). Digitized EEG signals were high-pass filtered with a 0.75-Hz filter. Spectral power densities for each frequency band were calculated by fast Fourier transform in consecutive 10-s epochs. Epochs containing abnormal EEG, defined by excessive amplitude (> 500 μV), were omitted from data analysis. For analysis of temporal changes in a specific spectral band (1–4 Hz for delta, 4–8 Hz for theta, 8–12 Hz for alpha, 12–30 Hz for beta, 30–80 Hz for gamma), the EEG power of each spectral band was calculated every 15 min. For each animal, the qEEG spectral analyses were performed from 30 to 240 min after treatment because oral and subcutaneous administration of drugs to monkeys can affect the qEEG power spectra. Data obtained in the post-drug period were normalized with those obtained in the baseline period and were calculated as the area under the curve (AUC) between 30 and 210 min after drug administration for quantitative analyses.

cynomolgus monkeys [4] = assay: scopolamine-induced qEEG spectral changes (scopolamine challenge paradigm); format: in vivo, cynomolgus monkeys (Macaca fascicularis)
Description: as §1, §2, §3, §4

rats = test system: rats; parameters: method as in PMID 30089885; settings: TAK-071 0.3 mg/kg; cited from earlier work
[5] = parameters: method as in PMID 30089885; settings: rats, TAK-071 0.3 mg/kg; cited from earlier work
M1R = test system: M1R; parameters: method as in PMID 30089885; settings: previous study; cited from earlier work
monkeys [6] = settings: cited from earlier work
freely moving rats = test system: freely moving rats; parameters: method as in PMID 25181033, PMID 26901596; settings: cited from earlier work
patients with AD = test system: patients with AD; parameters: method as in PMID 14626697; settings: cited from earlier work
healthy young volunteers = test system: healthy young volunteers; parameters: method as in PMID 1375552; settings: cited from earlier work
monkeys [7] = test system: monkeys; parameters: method as in PMID 17657478, PMID 25491927; settings: scopolamine 20–50 μg/kg; cited from earlier work
healthy subjects = healthy subjects after scopolamine treatment; cited from earlier work
monkeys [8] = settings: xanomeline 1 mg/kg subcutaneous; cited from earlier work
[9] = TAK-071 3 mg/kg p.o. simultaneously with scopolamine 25 μg/kg s.c., P ≤ 0.05
[10] = donepezil alone, 0.3 and 3 mg/kg p.o.
[11] = donepezil 3 mg/kg p.o. simultaneously with scopolamine 25 μg/kg s.c.
[12] = xanomeline 1 mg/kg s.c. simultaneously with scopolamine 25 μg/kg s.c., not statistically significant

For `Cc1cc(F)c2[nH]c(=O)n(C3CCN(C4CCOCC4)CC3)c2c1` [GSK1034702], the “brain uptake by PET” value [1] is listed as “good brain uptake”.

In the case of `Cc1ccc(Cc2cc3c(=O)n([C@H]4CCCC[C@@H]4O)cnc3c3ccccc23)cn1` [MK-7622], the alpha power band [2] is listed as “reductions” and the theta power band [2] is listed as “reductions”.

In the case of `Cc1c(Cc2ccc(-n3cccn3)cc2)cc2c(c1F)CN([C@H]1COCC[C@@H]1O)C2=O` [TAK-071, 4-fluoro-2-[(3S,4S)-4-hydroxytetrahydro-2H-pyran-3-yl]-5-methyl-6-[4-(1H-pyrazol-1-yl)benzyl]-2,3-dihydro-1H-isoindol-1-one], the “theta power band of qEEG spectra” value (cynomolgus monkeys [3]; TAK-071 alone, 1 mg/kg p.o., P ≤ 0.05 vs vehicle) is reported as “significantly decreased”, the “delta power band of qEEG spectra” value (cynomolgus monkeys [3]; TAK-071 alone, 0.3–3 mg/kg p.o.) is reported as “did not change” and the “alpha power band of qEEG spectra” value (cynomolgus monkeys [3]; TAK-071 alone, 1 and 3 mg/kg p.o., P ≤ 0.05 vs vehicle) is reported as “significantly decreased”. The “scopolamine-induced increase in alpha power band” value (cynomolgus monkeys [4]; TAK-071 1 mg/kg p.o. simultaneously with scopolamine 25 μg/kg s.c., P ≤ 0.05) was “significantly reduced”, the “scopolamine-induced increase in alpha power band” value (cynomolgus monkeys [4]; [9]) was “significantly suppressed” and the “scopolamine-induced increase in theta power band” value (cynomolgus monkeys [4]; [9]) was “significantly suppressed”. The “scopolamine-induced increase in delta power band” value (cynomolgus monkeys [4]; TAK-071 1 and 3 mg/kg p.o. simultaneously with scopolamine 25 μg/kg s.c., no significant effect) was “a decreasing trend was observed”, the scopolamine-induced cognitive deficits (rats) was “significantly ameliorated” and the maximum plasma concentration [5] was 232 ng/mL. The “selectivity as M1 PAM” value (M1R) was “highly selective M1 PAM”.

For `COc1cc2c(cc1OC)C(=O)C(CC1CCN(Cc3ccccc3)CC1)C2` (centres unmarked) [donepezil, Donepezil hydrochloride], the “alpha power band of qEEG spectra” value (cynomolgus monkeys [3]; donepezil alone, 0.3 mg/kg p.o., dose-dependency not observed) was “increased”, the “delta power band of qEEG spectra” value (cynomolgus monkeys [3]; [10]) was “did not affect” and the “theta power band of qEEG spectra” value (cynomolgus monkeys [3]; [10]) was “did not affect”. For the same compound, the “scopolamine-induced increase in alpha power band” value (cynomolgus monkeys [4]; [11]) was “tended to be attenuated”, the “scopolamine-induced increase in theta power band” value (cynomolgus monkeys [4]; [11]) was “tended to be attenuated” and the “scopolamine-induced increase in delta power band” value (cynomolgus monkeys [4]; donepezil 3 mg/kg p.o. simultaneously with scopolamine 25 μg/kg s.c., P ≤ 0.05 vs scopolamine) was “significantly suppressed”. The scopolamine-induced cognitive deficits (monkeys [6]; oral administration of 3 mg/kg donepezil) was “improved”, the scopolamine-induced cognitive deficits (monkeys [6]; oral donepezil 1–3 mg/kg) was “significantly attenuated” and the “delta power band after treatment with scopolamine” value (from here on “delta power band after treatment”) (freely moving rats) was “decreased”. The alpha activity (patients with AD) was “increased”, the beta activity (patients with AD) was “increased” and the delta activity (patients with AD) was “significantly decreased”.

In the case of `COc1ccc2c3c1O[C@H]1C[C@@H](O)C=C[C@@]31CCN(C)C2` [galantamine], the theta power band (healthy young volunteers) is given as “did not change”.

In the case of `CCN(C)C(=O)Oc1cccc([C@H](C)N(C)C)c1` [rivastigmine], the “delta power band after treatment” value (freely moving rats) is given as “decreased”.

For `CN1[C@@H]2C[C@@H](OC(=O)[C@H](CO)c3ccccc3)C[C@H]1[C@@H]1O[C@@H]12` [scopolamine, Scopolamine hydrobromide], the “alpha, theta, and delta power bands, dose-dependency” value (cynomolgus monkeys [3]; scopolamine 25, 50, or 100 μg/kg s.c.) is given as “increased alpha, theta, and delta power bands in a dose-dependent manner”, the “persistence of effects in all power bands after treatment” value (cynomolgus monkeys [3]; scopolamine 25-100 μg/kg s.c.) is given as 240 min and the cognitive impairment (monkeys [7]) is given as “moderately caused cognitive impairment”. The “alpha power band, resting state” value (healthy subjects) was “decrease” and the “delta power band, resting state” value (healthy subjects) was “increase”.

In the case of `Nc1c2c(nc3ccccc13)CCCC2` [tacrine], the “delta power band after treatment” value (freely moving rats) is given as “decreased”.

With `CCCCCCOc1nsnc1C1=CCCN(C)C1` [xanomeline, xanomeline oxalate] the “scopolamine-induced increase in alpha power band” value (cynomolgus monkeys [4]; [12]) was “showed a trend to suppress”, the “scopolamine-induced increase in delta power band” value (cynomolgus monkeys [4]; [12]) was “showed a trend to suppress” and the “scopolamine-induced increase in theta power band” value (cynomolgus monkeys [4]; [12]) was “showed a trend to suppress”. For the same compound, the scopolamine-induced cognitive deficits (monkeys [6]; intramuscular administration of 0.1 mg/kg xanomeline) was “improved” and the “antipsychotic-like activity and sedative effects” value (monkeys [8]) was “exhibited antipsychotic-like activity without inducing sedative effects”.
